A word on the IC50: it is the concentration at which inhibition is half-maximal. One may read the solubility as the concentration that dissolves in the medium under given conditions.

Converted amounts (≈) assume the structure as drawn. Where two headings read alike, the source gives them in different places.

For series [1], the system named is U87-MG. Kind of series: Anti-proliferative activity, CellTiterGlo assay, U87-MG. Conditions: Homo sapiens, U-87 MG, 96 hrs incubation, read-out: Antiproliferative activities IC50, U87-MG. It counts as cell-based. On the procedure: (§1) The anti-proliferative activities of the compounds against 6 human cancer cell lines were determined by CellTiterGlo assay kit. All cells were obtained from ATCC and cultured as recommended by the vendor. Cells were assayed in exponential growth phase. Sample solution was prepared by 3-fold serial dilution from 30 mM stock for 10 doses in DMSO. Antiproliferative activities were measured by CellTiterGlo assay kit according to the protocol after cells were incubated for 96 hrs in a 37° C., 5% CO2 incubator.
(§2) On the 4th day of incubation, i) 15 μl reagent (CelltiterGlo assay kit) was added per well and plate was shaken (avoiding light) for 2 mins on a plate shaker, ii) the plate was kept (avoiding light) in room temperature for 30 min, and iii) the luminescence value was recorded by Multiplate reader.
A general note: Cellular ATP, detected with luciferase, serves as a proxy for viable cell number.

Series [2] can be described thus: Stability against human liver microsomes. It is filed as in vitro ADME. Conditions: 2 μM compound. On the procedure: (§3) Determination of Stability Against Mouse and Human Mirosomes
(§4) Pooled human liver microsomes (Cat. 452161; Lot. 23418) were purchased from Corning and pooled male mouse liver microsomes (Cat. M1000; Lot. 1210302) were purchased from Xenotech. Microsomes were stored at −80° C. prior to use. 40 μL of ultra-pure H2O was used instead of NADPH solution in the negative control. The negative control was used to exclude the misleading factor that was resulted from instability of chemical itself. Samples with NADPH were prepared in duplicate. Negative controls were prepared in singlet.
(§5) The reaction was started with the addition of 4 μL of 200 μM compound solution to each master solution to get the final concentration of 2 μM. Verapamil was used as positive control in the assay. Aliquots of 50 μL were taken from the reaction solution at 0, 15, 30, 45 and 60 min. The reaction was stopped by addition of 4 volumes of cold acetonitrile with IS (200 nM imipramine, 200 nM labetalol and 2 μM ketoprofen). Samples were centrifuged at 3,220 g for 40 minutes. Aliquot of […] of the supernatant was mixed with 90 μL of ultra-pure H2O and then was used for LC-MS/MS analysis. Results are shown in Table 3 by indicating remaining % of the test compound after 60 minutes incubation with liver microsomes from human and mouse in the presence of NADPH.

Series [3] is described as follows: Stability against mouse liver microsomes. It is filed as in vitro ADME. Conditions: mouse LM, 2 μM compound, 60 min, NADPH. Here is the method:
as §3, §4, §5

The test system of series [4] is HT29. Kind of series: Anti-proliferative activity, CellTiterGlo assay, HT29. It is filed as cell-based. Conditions: Homo sapiens, HT-29; HT29, 96 hrs incubation; read-out: Antiproliferative activities IC50, HT29. On the procedure:
as §1, §2

Series [5] deals with MDA-MB-231. Kind of series: Anti-proliferative activity, CellTiterGlo assay, MDA-MB-231. It is filed as cell-based. The following applies: Homo sapiens; MDA-MB-231, 96 hrs incubation; read-out: Antiproliferative activities IC50, MDA-MB-231. Here is the method: as §1, §2
Series [6] has as its system A549. Kind of series: Anti-proliferative activity, CellTiterGlo assay, A549. It counts as cell-based. Conditions: Homo sapiens; A549, 96 hrs incubation; read-out: Antiproliferative activities IC50, A549. Here is the method:
as §1, §2

The subject of series [7] is LNCaP. Kind of series: Anti-proliferative activity, CellTiterGlo assay, LNCaP. Conditions: Homo sapiens, 96 hrs incubation, read-out: Antiproliferative activities IC50, LNCaP. It is filed as cell-based. On the procedure: as §1, §2
Series [8] has as its system BxPC-3. Kind of series: Anti-proliferative activity, CellTiterGlo assay, BxPC-3. It is filed as cell-based. Conditions: Homo sapiens; BxPC-3, 96 hrs incubation; read-out: Antiproliferative activities IC50, BxPC-3. On the procedure: as §1, §2
Series [9] can be described thus: Solubility in pH4.0 and pH7.4 phosphate buffer solution. Conditions: phosphate buffer (PBS), aqueous buffer, kinetic from dmso stock, 2 hr incubation, 25° C. It is filed as physicochemical. Here is the method:
1) Preparation of Stock Solutions
Diclofenac was used as positive control in the assay.
2) Procedures for Solubility Determination
This study was performed in duplicate. […] The filtered samples were diluted with methanol.
3) Samples Analyzed by LC-MS/MS

[10] abbreviates: pH 4.0 phosphate buffer solution, read-out: Solubility, pH 4.0 PBS.
Where [11] appears, read: pH 7.4 phosphate buffer solution, read-out: Solubility, pH 7.4 PBS.

Regarding `CC(/C=C/[C@@]1(C)[C@H](C)CC/C(=N\O)[C@@H]1C)=C\Cc1c(O)c(/C=N/O)c(C)c(Cl)c1OCF` [Compound 4, 4-chloro-3-(fluoromethoxy)-2-[(2E,4E)-5-[(1R,2R,3E,6R)-3-(hydroxyimino)-1,2,6-trimethylcyclohexyl]-3-methylpenta-2,4-dien-1-yl]-6-[(1E)-(hydroxyimino)methyl]-5-methylphenol], the IC50 in series [1] is 9.1 µM; in series [4], 6.4 µM; in [5], 5.1 µM; in series [6] it was 4.3 µM; in series [7] it was 4.2 µM; in [8] it was 11.4 µM. Moreover, in series [2], the “Liver microsome stability remaining % after 60 min incubation with NADPH, human LM” value (from here on “Liver microsome stability remaining % … human LM”) came to 67%. Also, the “Liver microsome stability remaining % after 60 min incubation with NADPH, mouse LM” value (shortened to “Liver microsome stability remaining % … mouse LM”) in series [3] stood at 47%.
On to `COc1c(Cl)c(C)c(/C=N/O)c(O)c1C/C=C(C)/C=C/[C@@]1(C)[C@H](C)CCC(C)(O)[C@@H]1C` (stereo partly drawn) [Compound 7, (E)-3-chloro-6-hydroxy-5-((2E,4E)-5-((1R,2R,6R)-3-hydroxy-1,2,3,6-tetramethylcyclohexyl)-3-methylpenta-2,4-dien-1-yl)-4-methoxy-2-methylbenzaldehyde oxime], for which the IC50 in series [1] is 13.1 µM; in [4] it was 10 µM; in series [5], 6.8 µM; in series [6] it was 6.5 µM; in series [7], 7.2 µM; in [8], 12.8 µM. Also, in series [2], the “Liver microsome stability remaining % … human LM” value is recorded as 71%. Besides, the “Liver microsome stability remaining % … mouse LM” value in [3] was 71%.
Consider `CC(/C=C/[C@@]1(C)[C@H](C)CC/C(=N\OCCN2CCOCC2)[C@@H]1C)=C\Cc1c(O)c(C=O)c(C)c(Cl)c1OCF` [Compound 12, 3-chloro-4-(fluoromethoxy)-6-hydroxy-2-methyl-5-[(2E,4E)-3-methyl-5-[(1R,2R,3E,6R)-1,2,6-trimethyl-3-[[2-(morpholin-4-yl)ethoxy]imino]cyclohexyl]penta-2,4-dien-1-yl]benzaldehyde], for which the IC50 in series [1] worked out at 3.6 µM; in series [4], 2.8 µM; in series [5] it was 5.8 µM; in series [6] it was 2.9 µM; in series [7], 0.9 µM; in series [8], 2.3 µM.
As to `CC(/C=C/[C@@]1(C)[C@H](C)CCC(NC2CC2)[C@@H]1C)=C\Cc1c(O)c(C=O)c(C)c(Cl)c1OCF` (stereo partly drawn) [Compound 13, 3-chloro-5-[(2E,4E)-5-[(1R,2R,6R)-3-(cyclopropylamino)-1,2,6-trimethylcyclohexyl]-3-methylpenta-2,4-dien-1-yl]-4-(fluoromethoxy)-6-hydroxy-2-methylbenzaldehyde], the IC50 in series [1] was 3 µM; in series [4], 3.6 µM; in series [5], 5.3 µM; in series [6], 2 µM; in series [7] it was 0.8 µM; in series [8], 2.2 µM. The solubility at 2 h in series [9] (setting [10]) stood at 18 µM (≈ 8.6 µg/mL); in [9] (setting [11]), 0.01 µM (≈ 0.00478 µg/mL).
Turning to `CO/N=C/c1c(C)c(Cl)c(OC)c(C/C=C(C)/C=C/[C@@]2(C)[C@H](C)CC/C(=N\OCCN(C)C)[C@@H]2C)c1O` [Compound 15, 4-chloro-2-[(2E,4E)-5-[(1R,2R,3E,6R)-3-[[2-(dimethylamino)ethoxy]imino]-1,2,6-trimethylcyclohexyl]-3-methylpenta-2,4-dien-1-yl]-3-methoxy-6-[(1E)-(methoxyimino)methyl]-5-methylphenol], the IC50 was 4.4 µM in series [1]; 7 µM in series [4]; 4.8 µM in series [5]; 6.7 µM in series [6]; 4.2 µM in series [7]; 1.7 µM in series [8]. The “Liver microsome stability remaining % … human LM” value in series [2] is recorded as 88%. The “Liver microsome stability remaining % … mouse LM” value in [3] was 79%. For the same molecule, the solubility at 2 h came to 54 µM (≈ 28.8 µg/mL) in [9] (setting [10]) and 0.29 µM (≈ 0.155 µg/mL) in series [9] (setting [11]).
Consider `CO/N=C/c1c(C)c(Cl)c(OC)c(C/C=C(C)/C=C/[C@@]2(C)[C@H](C)CC/C(=N\OCCN3CCN(C)CC3)[C@@H]2C)c1O` [Compound 17, 4-chloro-3-methoxy-6-[(1E)-(methoxyimino)methyl]-5-methyl-2-[(2E,4E)-3-methyl-5-[(1R,2R,3E,6R)-1,2,6-trimethyl-3-[[2-(4-methylpiperazin-1-yl)ethoxy]imino]cyclohexyl]penta-2,4-dien-1-yl]phenol], for which the IC50 in [1] worked out at 4.5 µM; in series [4] it was 5.2 µM; in series [5], 5 µM; in series [6], 6.8 µM; in series [7], 4.1 µM; in [8], 1.7 µM. Moreover, the “Liver microsome stability remaining % … human LM” value in series [2] is 76%. In addition, in series [3], the “Liver microsome stability remaining % … mouse LM” value stood at 55%. Also, the solubility at 2 h in series [9] (setting [10]) was 39 µM (≈ 23 µg/mL); in series [9] (setting [11]) it was 0.04 µM (≈ 0.0236 µg/mL).
On to `CCNC1CC[C@@H](C)[C@](C)(/C=C/C(C)=C/Cc2c(O)c(C=O)c(C)c(Cl)c2OC)[C@H]1C` (stereo partly drawn) [Compound 20, 3-chloro-5-[(2E,4E)-5-[(1R,2R,6R)-3-(ethylamino)-1,2,6-trimethylcyclohexyl]-3-methylpenta-2,4-dien-1-yl]-6-hydroxy-4-methoxy-2-methylbenzaldehyde], for which the IC50 in series [1] stood at 2.3 µM; in [4], 2.7 µM; in [5], 4.1 µM; in series [6] it was 4.8 µM; in [7], 1.9 µM; in [8], 2.3 µM. In addition, the solubility at 2 h came to 186 µM (≈ 83.3 µg/mL) in series [9] (setting [10]) and 0.32 µM (≈ 0.143 µg/mL) in series [9] (setting [11]).
Take `CCNC1CC[C@@H](C)[C@](C)(/C=C/C(C)=C/Cc2c(O)c(/C=N/OC)c(C)c(Cl)c2OC)[C@H]1C` (stereo partly drawn) [Compound 21, 4-chloro-2-[(2E,4E)-5-[(1R,2R,6R)-3-(ethylamino)-1,2,6-trimethylcyclohexyl]-3-methylpenta-2,4-dien-1-yl]-3-methoxy-6-[(1E)-(methoxyimino)methyl]-5-methylphenol]: the IC50 in [1] stood at 3.1 µM; in series [4], 5 µM; in [5], 4.3 µM; in [6], 5.3 µM; in series [7], 3.8 µM; in series [8] it was 1.7 µM. In addition, in series [2], the “Liver microsome stability remaining % … human LM” value was found to be 100%. Moreover, the “Liver microsome stability remaining % … mouse LM” value in series [3] is given as 80%. The results for the solubility at 2 h in series [9] (setting [10]) and in series [9] (setting [11]) were 168 µM (≈ 80.2 µg/mL) and 0.003 µM (≈ 0.00143 µg/mL), respectively.
With `COc1c(Cl)c(C)c(C=O)c(O)c1C/C=C(C)/C=C/[C@@]1(C)[C@H](C)CCC(NC2CC2)[C@@H]1C` (stereo partly drawn) [Compound 22, 3-chloro-5-[(2E,4E)-5-[(1R,2R,6R)-3-(cyclopropylamino)-1,2,6-trimethylcyclohexyl]-3-methylpenta-2,4-dien-1-yl]-6-hydroxy-4-methoxy-2-methylbenzaldehyde], the 50% inhibitory concentration (IC50) was found to be 3.2 µM in series [1]; 3.8 µM in [4]; 6 µM in series [5]; 1.9 µM in [6]; 1.1 µM in [7]; 2.7 µM in series [8]. Moreover, the solubility at 2 h in series [9] (setting [10]) is 29 µM (≈ 13.3 µg/mL); in series [9] (setting [11]) it was 0.01 µM (≈ 0.0046 µg/mL).

(Values after US10968186B2, “Ascochlorin derivative and use thereof as AMPK activator” (priority 2016, dated 2021).)
